One assay concerns the target T1, α1b-AR (Homo sapiens, UniProt P35368).
T1 sequence (P35368 1-520): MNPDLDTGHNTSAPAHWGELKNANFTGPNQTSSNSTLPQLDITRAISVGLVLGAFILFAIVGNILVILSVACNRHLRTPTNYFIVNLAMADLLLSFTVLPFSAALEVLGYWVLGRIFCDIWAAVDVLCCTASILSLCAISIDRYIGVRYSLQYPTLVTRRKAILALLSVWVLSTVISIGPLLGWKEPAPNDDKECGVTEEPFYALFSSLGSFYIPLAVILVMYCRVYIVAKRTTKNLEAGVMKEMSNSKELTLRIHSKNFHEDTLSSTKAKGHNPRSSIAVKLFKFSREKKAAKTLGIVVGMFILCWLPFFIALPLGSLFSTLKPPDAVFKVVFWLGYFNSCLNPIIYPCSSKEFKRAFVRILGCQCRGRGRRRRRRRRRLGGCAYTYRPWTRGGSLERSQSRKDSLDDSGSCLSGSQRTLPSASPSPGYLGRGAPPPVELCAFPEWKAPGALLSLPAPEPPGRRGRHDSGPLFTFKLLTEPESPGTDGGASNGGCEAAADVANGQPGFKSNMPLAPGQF
In words: α1-Adrenergic receptor radio-ligand (125I-HEAT) binding assay, α1b subtype. To be noted: Receptor Binding, Ki α1b-AR, COS-7 cell membranes, 125I-HEAT.

The next assay addresses T2, α1d-AR (Homo sapiens, UniProt P25100).
T2 construct: expressed in transfected cells; host or cells: COS-7
T2 sequence (P25100 1-572): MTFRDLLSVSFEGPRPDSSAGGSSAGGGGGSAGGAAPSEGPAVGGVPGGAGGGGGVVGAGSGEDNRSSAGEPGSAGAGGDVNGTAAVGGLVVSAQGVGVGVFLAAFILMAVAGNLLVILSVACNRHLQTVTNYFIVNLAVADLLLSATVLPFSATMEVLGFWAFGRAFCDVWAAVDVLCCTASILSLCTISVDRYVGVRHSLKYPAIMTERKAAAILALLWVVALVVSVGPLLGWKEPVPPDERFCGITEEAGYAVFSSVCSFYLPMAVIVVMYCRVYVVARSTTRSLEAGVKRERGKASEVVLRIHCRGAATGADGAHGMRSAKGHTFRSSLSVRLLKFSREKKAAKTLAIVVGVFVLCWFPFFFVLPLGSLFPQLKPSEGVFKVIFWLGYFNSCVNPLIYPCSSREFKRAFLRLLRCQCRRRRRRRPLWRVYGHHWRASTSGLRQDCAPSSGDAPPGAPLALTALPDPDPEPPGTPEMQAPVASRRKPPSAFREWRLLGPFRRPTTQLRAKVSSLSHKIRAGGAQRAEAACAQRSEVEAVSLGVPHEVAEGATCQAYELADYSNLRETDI
As to the kind of experiment: α1-Adrenergic receptor radio-ligand (125I-HEAT) binding assay, α1d subtype. As for the experimental part: α1-Adrenergic Receptor Binding Assay: Preparation of COS Cell Membranes
Membranes were prepared from COS-7 cells that had been transfected with one of the three α1-AR subtypes by the following method. COS cells from ten 100 mm tissue culture plates were scraped into 5 mL TE (50 mM Tris-HCl, 5 mM EDTA, pH 7.4). The cell suspension was disrupted with a Brinkman Polytron, setting 8, for 10 sec. The disrupted cells were centrifuged at 1000×g for 10 min at 4° C. Supernatants were centrifuged at 34,500×g for 20 min at 4° C. The membrane pellets were suspended in 2 mL TNE (50 mM Tris-HCl, 5 mM EDTA, 150 mM NaCl, pH7.4). An aliquot of the membrane suspension was stored at −70° C. until use. The protein concentration was determined using the BioRad DC protein assay kit following membrane solubilization with Triton X-100.
Radio-Ligand Binding Assay
Triplicate determinations of radio-ligand binding in the presence of increasing: concentrations of testing compound were made. The reagents were added to 96-well polypropylene plate wells using the Biomek 1000 robot (Beckman Instruments). […] The plate was incubated at rt for 1 hr. The contents of the wells were filtered through a GF/C membrane Unifilter plate (Packard Instruments) using the Packard Filtermate cell harvester. The filter plates were dried in a vacuum oven for 30 min at 40° C. 25 μL Microscint 20 liquid scintillation fluid (Packard Instuments) was added to each well. The radioactive content was analyzed in the TopCount microplate scintillation counter (Packard Instruments).

The mark [1] stands for this setting: Receptor Binding, Ki α1d-AR, COS-7 cell membranes, 125I-HEAT.
The mark [2] stands for this setting: COS-7 cell membranes, 125I-HEAT, read-out: Receptor Binding, Ki α1d-AR.

Where two headings read alike, the source gives them in different places.

A word on the Ki: it is a dissociation constant, usually derived from enzyme kinetics or from competition with a known ligand.

Regarding `CC(C)Oc1ccccc1N1CCN([C@H]2CC[C@H](NS(=O)(=O)c3cccc(C(F)(F)F)c3)CC2)CC1` [Cpd 30, N-trans-{4-[4-(2-Isopropoxy-phenyl)-piperazin-1-yl]-cyclohexyl}-3-trifluoromethyl-benzenesulfonamide], the Ki at α1b-AR is 204 nM; on α1d-AR (setting [1]) it was 49 nM.

Turning to `COc1ccc(S(=O)(=O)N[C@H]2CC[C@@H](N3CCN(c4ccccc4OC(C)C)CC3)CC2)cc1OC` [Cpd 7, N-cis-{4-[4-(2-Isopropoxy-phenyl)-piperazin-1-yl]-cyclohexyl}-3,4-dimethoxy-benzenesulfonamide], the inhibition constant (Ki) on α1b-AR was 109 nM; on α1d-AR, 1 nM.

As for `CC(C)Oc1ccccc1N1CCN([C@H]2CC[C@H](NS(=O)(=O)c3cccc(C(F)(F)F)c3)CC2)CC1` [Cpd 44, N-trans-{4-[4-(2-Isopropoxy-phenyl)-piperazin-1-yl]-cyclohexyl}-3-trifluoromethyl-benzenesulfonamide], the inhibition constant Ki was determined as 334 nM at α1b-AR and 34.7 nM on α1d-AR (setting [1]).

Take `CC(C)Oc1ccccc1N1CCN([C@H]2CC[C@@H](NS(=O)(=O)c3ccc(S(C)(=O)=O)cc3)CC2)CC1` [Cpd 6, N-cis-{4-[4-(2-Isopropoxy-phenyl)-piperazin-1-yl]-cyclohexyl}-4-methanesulfonyl-benzenesulfonamide]: the results for the Ki on α1b-AR and at α1d-AR (setting [2]) were 195 nM and 3.4 nM, respectively.

With `CC(C)Oc1ccccc1N1CCN([C@H]2CC[C@@H](NS(=O)(=O)c3ccccc3C#N)CC2)CC1` [Cpd 27, 2-Cyano-N-cis-{4-[4-(2-isopropoxy-phenyl)-piperazin-1-yl]-cyclohexyl}-benzenesulfonamide], the Ki at α1b-AR turned out to be 217 nM; on α1d-AR (setting [2]), 6.3 nM.

Regarding `CC(C)Oc1ccccc1N1CCN([C@H]2CC[C@H](NS(=O)(=O)c3ccc(Cl)cc3F)CC2)CC1` [Cpd 52, 4-Chloro-2-fluoro-N-trans-{4-[4-(2-isopropoxy-phenyl)-piperazin-1-yl]-cyclohexyl}-benzenesulfonamide], the Ki at α1b-AR is 243 nM; at α1d-AR, 19 nM.

On α1b-AR, `CC(C)Oc1ccccc1N1CCN([C@H]2CC[C@@H](NS(=O)(=O)c3cccc(C(F)(F)F)c3)CC2)CC1` [Cpd 2, N-cis-{4-[4-(2-Isopropoxy-phenyl)-piperazin-1-yl]-cyclohexyl}-3-trifluoromethyl-benzenesulfonamide] came in with a Ki of 276 nM.

With `CC(C)Oc1ccccc1N1CCN([C@H]2CC[C@H](NS(=O)(=O)c3ccc(S(C)(=O)=O)cc3)CC2)CC1` [Cpd 34, N-trans-{4-[4-(2-Isopropoxy-phenyl)-piperazin-1-yl]-cyclohexyl}-4-methanesulfonyl-benzenesulfonamide], the Ki on α1b-AR came out at 392 nM; at α1d-AR (setting [2]), 22 nM.

For the compound `CC(C)Oc1ccccc1N1CCN([C@H]2CC[C@H](NS(=O)(=O)c3cccc(Cl)c3F)CC2)CC1` [Cpd 51, 3-Chloro-2-fluoro-N-trans-{4-[4-(2-isopropoxy-phenyl)-piperazin-1-yl]-cyclohexyl}-benzenesulfonamide], the Ki at α1b-AR was 348 nM; at α1d-AR (setting [2]), 24 nM.

Take `CC(C)Oc1ccccc1N1CCN([C@H]2CC[C@@H](NS(=O)(=O)c3cccc(Cl)c3F)CC2)CC1` [Cpd 23, 3-Chloro-2-fluoro-N-cis-{4-[4-(2-isopropoxy-phenyl)-piperazin-1-yl]-cyclohexyl}-benzenesulfonamide]: the values for the Ki on α1b-AR and at α1d-AR (setting [2]) were 195 nM and 3 nM, respectively.

For `COc1ccc(OC)c(S(=O)(=O)N[C@H]2CC[C@@H](N3CCN(c4ccccc4OC(C)C)CC3)CC2)c1` [Cpd 8, N-cis-{4-[4-(2-Isopropoxy-phenyl)-piperazin-1-yl]-cyclohexyl}-2,5-dimethoxy-benzenesulfonamide], the Ki at α1b-AR came to 167 nM; at α1d-AR (setting [1]), 9.6 nM.

For the compound `COc1ccc(S(=O)(=O)N[C@H]2CC[C@H](N3CCN(c4ccccc4OC(C)C)CC3)CC2)cc1OC` [Cpd 35, N-trans-{4-[4-(2-Isopropoxy-phenyl)-piperazin-1-yl]-cyclohexyl}-3,4-dimethoxy-benzenesulfonamide], the Ki at α1b-AR was found to be 126 nM; on α1d-AR, 24 nM.

Regarding `COc1ccc(Br)cc1S(=O)(=O)N[C@H]1CC[C@@H](N2CCN(c3ccccc3OC(C)C)CC2)CC1` [Cpd 28, 5-Bromo-N-cis-{4-[4-(2-isopropoxy-phenyl)-piperazin-1-yl]-cyclohexyl}-2-methoxy-benzenesulfonamide], the results for the Ki on α1b-AR and on α1d-AR (setting [2]) were 42 nM and 0.8 nM, respectively.

As for `CC(C)Oc1ccccc1N1CCN([C@H]2CC[C@H](NS(=O)(=O)c3ccccc3F)CC2)CC1` [Cpd 49, 2-Fluoro-N-trans-{4-[4-(2-isopropoxy-phenyl)-piperazin-1-yl]-cyclohexyl}-benzenesulfonamide], the results for the Ki at α1b-AR and at α1d-AR (setting [1]) were 385 nM and 30 nM, respectively.

For `COc1ccc(Br)cc1S(=O)(=O)N[C@H]1CC[C@H](N2CCN(c3ccccc3OC(C)C)CC2)CC1` [Cpd 56, 5-Bromo-N-trans-{4-[4-(2-isopropoxy-phenyl)-piperazin-1-yl]-cyclohexyl}-2-methoxy-benzenesulfonamide], the Ki amounted to 131 nM on α1b-AR and 38 nM on α1d-AR (setting [2]).

On to `CC(C)Oc1ccccc1N1CCN([C@H]2CC[C@@H](NS(=O)(=O)c3ccc(Cl)cc3F)CC2)CC1` [Cpd 24, 4-Chloro-2-fluoro-N-cis-{4-[4-(2-isopropoxy-phenyl)-piperazin-1-yl]-cyclohexyl}-benzenesulfonamide], for which the Ki stood at 101 nM on α1b-AR and 1.5 nM at α1d-AR.

Consider `CC(C)Oc1ccccc1N1CCN([C@H]2CC[C@@H](NS(=O)(=O)c3ccccc3F)CC2)CC1` [Cpd 21, 2-Fluoro-N-cis-{4-[4-(2-isopropoxy-phenyl)-piperazin-1-yl]-cyclohexyl}-benzenesulfonamide], for which the Ki on α1b-AR amounted to 103 nM; on α1d-AR (setting [1]) it was 2.7 nM.

Consider `CC(C)Oc1ccccc1N1CCN([C@H]2CC[C@H](NS(=O)(=O)c3ccccc3C#N)CC2)CC1` [Cpd 55, 2-Cyano-N-trans-{4-[4-(2-isopropoxy-phenyl)-piperazin-1-yl]-cyclohexyl}-benzenesulfonamide], for which the values for the Ki on α1b-AR and at α1d-AR (setting [2]) were 31 nM and 3.2 nM, respectively.

On α1b-AR, `CC(C)Oc1ccccc1N1CCN([C@H]2CC[C@@H](NS(=O)(=O)c3cccc(C(F)(F)F)c3)CC2)CC1` [Cpd 16, N-cis-{4-[4-(2-Isopropoxy-phenyl)-piperazin-1-yl]-cyclohexyl}-3-trifluoromethyl-benzenesulfonamide] displayed a Ki of 222 nM.

Regarding `COc1ccc(OC)c(S(=O)(=O)N[C@H]2CC[C@H](N3CCN(c4ccccc4OC(C)C)CC3)CC2)c1` [Cpd 36, N-trans-{4-[4-(2-Isopropoxy-phenyl)-piperazin-1-yl]-cyclohexyl}-2,5-dimethoxy-benzenesulfonamide], the Ki at α1b-AR amounted to 424 nM; at α1d-AR (setting [1]) it was 56 nM.

The values are drawn from patent publication US20060173015A1, “Cyclohexyldiamines as selective alpha 1a/1d adrenoreceptor antagonists for the treatment of benign prostatic hypertrophy and lower urinary tract symptoms” (priority 2004, published 2006).
